{"source": "paper PMC7327804", "about": "(Data in Brief, 2020)", "key": {"HA-hNTS2 receptor": {"molecular_target": "T1, HA-hNTS2 receptor (Homo sapiens, UniProt O95665)", "T1 construct": "expressed in transfected cells; host or cells: CHO-K1, transient transfection", "T1 sequence (O95665 whole entry)": "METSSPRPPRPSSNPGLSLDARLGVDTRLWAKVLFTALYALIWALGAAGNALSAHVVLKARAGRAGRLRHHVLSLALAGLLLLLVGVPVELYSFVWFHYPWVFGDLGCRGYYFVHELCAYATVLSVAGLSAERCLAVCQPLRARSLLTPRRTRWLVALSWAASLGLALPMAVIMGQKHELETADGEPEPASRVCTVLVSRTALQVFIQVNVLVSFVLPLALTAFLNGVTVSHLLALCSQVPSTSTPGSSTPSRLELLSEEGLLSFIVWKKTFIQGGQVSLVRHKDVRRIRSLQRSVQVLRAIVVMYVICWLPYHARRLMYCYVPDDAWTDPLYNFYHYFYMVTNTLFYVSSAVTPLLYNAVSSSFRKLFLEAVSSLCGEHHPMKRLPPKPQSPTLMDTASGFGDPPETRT", "experiment": "Cell-surface ELISA for internalization of HA-hNTS2 receptor", "assay_type": "cell-based", "details": "CHO-K1 cells transfected with HA-hNTS2, 1 µM ligand, 60 min at 37 °C in serum-free media, mean ± SEM of at least three independent determinations", "procedure": "Receptor internalization using CHO-K1 cells transiently transfected with either HA-NTS1 or HA-NTS2 was carried out as previously described in details [9], [10], [11]. […] Cells were then washed with PBS and remaining ELISA steps form the detailed protocol were followed and unchanged. Absorbance was read at 450 nm and data were normalized according to the protocol."}, "[1]": {"test_system": "NTS1 (p42/p44 MAPK phosphorylation)", "experiment": "Western blot of p42/p44 (ERK1/2) phosphorylation in CHO-K1 cells stably expressing NTS1", "assay_type": "cell-based, human", "details": "CHO-K1 cells stably expressing NTS1, serum-starved, 1 µM ligand, various time points", "protocol": "(§1) Cells stably expressing NTS1 or NTS2 were grown for 48 h in complete culture media before being incubated for 16 h in serum-free media. Cells were then stimulated with either NT or JMV2009. Aspiration of media and addition of ice-cold PBS blocked any further protein phosphorylation. Cells were then lysed in RIPA containing proteases and phosphatases inhibitors before being centrifuged at 8000 g for 15 min.\n(§2) Separation, transfer and blotting steps were performed as described previously using anti-phosphorylated ERK1/2 (Cell Signaling, cat# 4376S, lot 18, Danvers, MA; 1:1000, in TBS-T, 1% BSA) or anti-ERK1/2 (Cell Signaling, cat# 4695S, lot 28; 1:1000, in TBS-T, 1% BSA) as primary antibodies and HRP-conjugated anti-rabbit IgG from goat (Cell Signaling, cat# 7074S, lot 28; 1:5000, in TBS-T, 1% BSA) as secondary antibody for detection."}, "[2]": {"test_system": "NTS2 (p42/p44 MAPK phosphorylation)", "experiment": "Western blot of p42/p44 (ERK1/2) phosphorylation in 1321N1 cells stably expressing NTS2", "assay_type": "cell-based, human", "details": "1321N1 cells stably expressing NTS2, serum-starved, 1 µM ligand, various time points", "protocol": "as §1, §2"}}, "data": [{"compound": "CC[C@H](C)[C@H](NC(=O)[C@H](Cc1ccc(O)cc1)NC(=O)[C@@H]1C[Si](C)(C)CN1C(=O)[C@H](CCCCN)NC(=O)[C@@H](N)CCCCN)C(=O)N[C@@H](CC(C)C)C(=O)O", "note": "[JMV2009]", "values": [{"measurement": "NTS2 internalization", "setting": "HA-hNTS2 receptor", "value": "15.1 ± 9.8", "unit": "%"}, {"measurement": "phosphorylation of p42/p44 proteins (ERK 1/2), NTS1 cells", "setting": "[1]", "value": "time-dependent phosphorylation"}, {"measurement": "phosphorylation of p42/p44 proteins (ERK 1/2), NTS2 cells", "setting": "[2]", "value": "time-dependent phosphorylation"}]}]}
